In patent publication US7728035B2, “Ester derivatives of rhein and their therapeutic use” (Sosei R&D Ltd., priority 2004, dated 2010):

Experiments:
TNFα and IL-1β levels = experiment: LPS Mouse Assay; type: in vivo, Balb-c mice
Procedure: 7 week old Balb-c mice (n=8) fed and watered ad libitum were dosed at time zero with the compound of Example 1 at 3, 30 and 300 mg/kg in a 1% methylcellulose vehicle by oral gavage (10 ml/kg). 30 minutes after drug treatment mice were intraperitoneally administered with 1 mg/kg LPS (5 ml/kg in normal saline). 2 hours post-LPS challenge blood samples were collected by cardiac puncture under isoflurane anaesthesia. Blood samples were allowed to clot at room temperature for 10 minutes and then put on ice until spun at 6000 g for 3 minutes at 4° C. and then stored at −20° C. until analysis by ELISA for TNFα and IL-1β levels. TNFα and IL-1β levels were reported as pg/ml of serum (mean±SEM) significance was evaluated by a Dunnett's test followed by a Kruskal-Wallis one way analysis followed by a Dunn's test.

[1] = test system: clinical signs induced in the EAE model; experiment: Experimental Autoimmune Encephalitis (EAE); type: in vivo, Male Lewis rats; details: 150 mg/kg orally twice a day from the day of inoculation; scored daily from day 7 post-inoculation
Procedure: Experimental Autoimmune Encephalitis (EAE)
Male Lewis rats (250-290 g) (n=10) were injected into both rear foot-pad with 0.1 ml of an emulsion containing equal parts of guinea-pig spinal cord, phosphate buffered saline and incomplete Freund's adjuvant with 8 mg/ml Mycobacterium tuberculosis H37Ra. The compound of Example 1 (150 mg/kg) was dosed orally in a 10% acacia gum vehicle (1 ml/kg) twice a day from the day of inoculation.
Body weights and neurological scores were observed daily from day 7 post-inoculation. The total daily score was calculated for each group and plotted over time. Non-parametric statistical analyses (Kruskal-Wallis) one-way analysis, followed by a Dunn's test, were employed.

cytokine production = experiment: in vitro cytokine production (cellular assay); type: cell-based; details: assay not described
T-cell proliferation = experiment: in vitro T-cell proliferation (cellular assay); type: cell-based; details: assay not described

Row | Structure (SMILES) | efficacy in the LPS mouse model (summary statement) (TNFα and IL-1β levels; mouse, in vivo) | reduction of TNFα levels post-LPS insult (TNFα and IL-1β levels; serum, ELISA, 3, 30 and 300 mg/kg by oral gavage 30 minutes before 1 mg/kg LPS i.p., blood 2 hours post-LPS, all three doses, dose-dependant) | reduction of IL-1β levels post-LPS (TNFα and IL-1β levels; serum, ELISA, oral gavage 30 minutes before 1 mg/kg LPS i.p., blood 2 hours post-LPS, at the top two doses (30 and 300 mg/kg)) | efficacy on clinical signs (neurological scores) in the EAE model [1] | inhibition of cytokine production (cytokine production) | inhibition of T-cell proliferation (T-cell proliferation)
1 | O=C(O)c1cc(OC(=O)C2CCOCC2)c2c(c1)C(=O)c1cccc(OC(=O)C3CCOCC3)c1C2=O [Example 1, 4,5-Bis(tetrahydropyran-4-carbonyloxy)-9,10-dioxo-dihydroanthracene-2-carboxylic acid] | efficacy | significant efficacy on reducing TNFα levels | reduced IL-1β levels | significant efficacy |  | 
2 | O=C(O)c1cc(O)c2c(c1)C(=O)c1cccc(O)c1C2=O [rhein, 1,8-dihydroxyanthraquinone-3-carboxylic acid] |  |  |  |  | fail to produce a response | fail to produce a response
